Structures can show the parent of a compound that is named as a salt.
System: female Sprague-Dawley rats (Sham and Ovx)
Experiment: Female Rat Study: chronic oral treatment with a GHRP mimetic, non-fasting plasma insulin and metabolite levels
Format: in vivo
Conditions: non-fasting blood at sacrifice
Procedure: This study evaluates the effect of chronic treatment with a GHRP mimetic on weight, body composition and non-fasting plasma concentrations of glucose, insulin, lactate and lipids in estrogen-deficient and estrogenreplete female rats. Acute responsiveness of serum GH levels to i.v. administration of the GH releasing agent was assessed on the last day of dosing. Body weight was monitored weekly throughout the treatment period; additionally, body composition and plasma levels of glucose, insulin, lactate, cholesterol and triglycerides were assessed at the end of treatment.
Virgin female Sprague-Dawley rats were obtained from Charles River Laboratories (Wilmington, Mass.) and underwent bilateral ovariectomy (Ovx) or sham-surgery (Sham) at approximately 12 weeks of age. For sham surgeries, ovaries were exteriorized and replaced into the abdominal cavity. Following surgery the rats were housed individually in 20 cm×32 cm×20 cm cages under standard vivarium conditions (about 24° C. with about 12 hours light/12 hours dark cycle). All rats were allowed free access to water and a pelleted commercial diet (Agway ProLab 3000, Agway Country Food, Inc., Syracuse, N.Y.). The experiment was conducted in accordance with NIH Guidelines for the Care and Use of Laboratory Animals.
Approximately seven months post-surgery, Sham and Ovx rats were weighed and randomly assigned to groups. Rats were dosed daily by oral gavage with 1 mL of either vehicle (1% ethanol in distilled-deionized water), 0.5 mg/kg or 5 mg/kg of a growth hormone releasing agent for 90 days. Rats were weighed at weekly intervals throughout the study. Twenty-four hours after the last oral dose, the acute response of serum growth hormone (GH) to test agent was assessed by the following procedure. Rats were anesthetized with sodium pentobarbital 50 mg/kg. Anesthetized rats were weighed and a baseline blood sample (˜100 μl) was collected from the tail vein. Test agent (growth hormone releasing agent or vehicle) was then administered intravenously via the tail vein in 1 mL. Approximately ten minutes after injection, a second 100 μl blood sample was collected from the tail. Blood was allowed to clot at about 4° C., then centrifuged at 2000×g for about 10 minutes. Serum was stored at about −70° C. Serum growth hormone concentrations were determined by radioimmunoassay as previously described. Following this procedure, each anesthetized rat underwent whole body scanning by dual-energy X-ray absorptiometry (DEXA, Hologic QDR 1000/W, Waltham Mass.). A final blood sample was collected by cardiac puncture into heparinized tubes. Plasma was separated by centrifugation and stored frozen as described above.
Plasma insulin is determined by radioimmunoassay using a kit from Binax Corp. (Portland, Me.). The interassay coefficient of variation is ≦10%. Plasma triglycerides, total cholesterol, glucose and lactate levels are measured using Abbott VP™ and VP Super System® Autoanalyzer (Abbott Laboratories, Irving, Texas), using the A-Gent™ Triglycerides, Cholesterol and Glucose Test reagent systems, and a lactate kit from Sigma, respectively. The plasma insulin, triglycerides, total cholesterol and lactate lowering activity of a growth hormone releasing peptide (GHRP) or GHRP mimetic such as a compound of formula I, are determined by statistical analysis (unpaired t-test) with the vehicle-treated control group.

[1] = Ovx rats, 0.5 mg/kg daily oral gavage for 90 days
[2] = Ovx rats, 5.0 mg/kg daily oral gavage for 90 days
[3] = Sham rats, 0.5 mg/kg daily oral gavage for 90 days
[4] = Sham rats, 5.0 mg/kg daily oral gavage for 90 days

**Q.** What does the source list for CN1N=C2CCN(C(=O)[C@@H](COCc3ccccc3)NC(=O)C(C)(C)N)C[C@@]2(Cc2ccccc2)C1=O [2-amino-N-[2-(3a-(R)-benzyl-2-methyl-3-oxo-2,3,3a,4,6,7-hexahydro-pyrazolo[4,3-c]pyridin-5-yl)-1-(R)-(benzyloxymethyl)-2-oxo-ethyl]-isobutyramide L-tartaric acid salt]?
**A.** Cholesterol (mean plasma level) [1]: 92.5 mg/dL; Glucose (mean plasma level) [1]: 179.7 mg/dL; Insulin (mean plasma level) [1]: *78.7 uU/mL; Lactate (mean plasma level) [1]: 3.6 mg/dL; Triglyceride (mean plasma level) [1]: 181.9 mg/dL; Cholesterol (mean plasma level) [2]: 102.2 mg/dL; Glucose (mean plasma level) [2]: 177.2 mg/dL; Insulin (mean plasma level) [2]: *84.1 uU/mL; Lactate (mean plasma level) [2]: 3.1 mg/dL; Triglyceride (mean plasma level) [2]: 158.4 mg/dL; Cholesterol (mean plasma level) [3]: 95.4 mg/dL; Glucose (mean plasma level) [3]: *142.7 mg/dl; Insulin (mean plasma level) [3]: 94.9 uU/mL; Lactate (mean plasma level) [3]: 3.7 mg/dL; Triglyceride (mean plasma level) [3]: 219.6 mg/dL; Cholesterol (mean plasma level) [4]: *80.6 mg/dl; Glucose (mean plasma level) [4]: *139.9 mg/dl; Insulin (mean plasma level) [4]: 95.7 uU/mL; Lactate (mean plasma level) [4]: *3.2 mg/dl; Triglyceride (mean plasma level) [4]: 227.2 mg/dL
